The values below come from ChEMBL document CHEMBL1158945, “Four Novel Diterpenoids: Clavirolides B, C, D, and E from the Chinese Soft Coral Clavularia viridis” (J Nat Prod, 1991).

≈ marks a conversion by molar mass, not a printed value.

The species named for one data set is Oryctolagus cuniculus. The data set can be described thus: Blocked of calcium channel in rabbit smooth muscle. In kind it is tissue-based. Particulars: Muscle tissue.
A short description of data set [1]: Cytotoxicity against mouse EAC cells. In kind it is functional, cell-based. Particulars: Ehrlich.
A further data set has as its system Rattus norvegicus. The data set can be described thus: Decrease in blood pressure in rat at 45 uM/kg. In kind it is organism-based.
The next data set deals with Heart. In words: Toxicity in isolated guinea pig heart assessed as bradycardia at 45 uM/kg. The following applies: ex_vivo. In kind it is tissue-based, Cavia porcellus.
A short description of data set [2]: Negative inotropic activity in guinea pig atria muscle at 36 uM. In kind it is functional, Cavia porcellus, Muscle tissue.

Turning to `CC1=C2CC[C@@]3(C)CC/C(C)=C\C(=O)C[C@@H](C)C[C@@H](OC1=O)[C@H]23` [CLAVIROLIDE D], the pD2 in the data set listed under Oryctolagus cuniculus amounted to 4.79. Also, in data set [1], the midpoint of inhibition, the IC50, lay at 11.7 µg/mL (≈ 37 µM).
In the case of `CC1=C2CC[C@@]3(C)CC[C@H](C)CC(=O)C[C@@H](C)C[C@@H](OC1=O)[C@H]23` [CLAVIROLIDE C], the Activity stood at 24 mmHg in the data set with Rattus norvegicus, 43.7% with Heart and 50% in data set [2]. The pD2 in the data set listed under Oryctolagus cuniculus stood at 5.48. In data set [1], the IC50 stood at 27 µg/mL (≈ 84.8 µM).
Turning to `CC1=C2CC[C@@]3(C)C/C=C(\C)CC(=O)C[C@@H](C)C[C@@H](OC1=O)[C@H]23` [CLAVIROLIDE B], the pD2 in the data set filed under Oryctolagus cuniculus was found to be 4.68. Besides, the IC50 in data set [1] is 21 µg/mL (≈ 66.4 µM).
`CC1=C2CC[C@@]3(C)C/C=C(/C)CC(=O)C[C@@H](C)C[C@@H](OC1=O)[C@H]23` [CLAVULACTONE] showed an IC50 in data set [1] of 8 µg/mL (≈ 25.3 µM).
